Assay results from patent US7271148B2, “Inhibition of cellular proteases” (The Board of Regents of The University of Texas System, priority 1999, dated 2007).

Test system: p21^cip1 abundance in HCMV-infected LU cells
Assay: Western blot of p21cip1 abundance in HCMV-infected, density-arrested LU cells
Format: cell-based, human
Method: Cell culture and growth arrest. LU cells (3) were propagated in Eagle's minimum essential medium containing 10% fetal bovine serum and penicillin (100 units/ml)/streptomycin (100 μg/ml) in a 5% CO2 in air atmosphere. The cells were density-arrested as described previously in detail (18).
Virus stocks and productive infection. The AD169 strain of HCMV was propagated in LU cells as previously described in detail (6). The infectivity of virus stocks was determined by plaque assay (3). Virus stocks typically had infectivities between 8.0×10^6 and 4.0×10^7 plaque-forming units (PFU)/milliliter. LU cells were infected with HCMV as described in detail by Bresnahan et al. (18). Virus stocks and cell cultures were routinely examined for mycoplasma.
Western blots. Polyclonal or monoclonal antibody for p21^cip1 was obtained from Santa Cruz Biotechnology, Inc. (Santa Cruz, Calif.). Monoclonal antibodies against m-calpain, μ-calpain or calpastatin were generously provided by Dr. R. I. Mellgren (see also 75). Cells were harvested as described previously (18) by dislodging the cells with a cell lifter in phosphate buffered saline. The cells were collected by sedimentation and lysed in NP-40 lysis buffer [50 mM Tris, pH 7.4, 50 mM NaCl, 0.5% NP-40, and 1 mM NaVO3, 50 mM NaF, 1mM phenylmethylsulfonyl fluoride (PMSF), 1 mM dithiothreitol (DTT), 25 μg/ml trypsin inhibitor, 25 μg/ml aprotinin, 1 mM benzamide, and 25 μg/ml pepstatin A added just before use]. Cellular debris was removed by sedimentation and the supernatant fluids were reserved. The protein concentration was determined by the BCA protein assay (Pierce, Rockford, Ill.). Whole cell extracts (40 μg/lane) were fractionated by SDS-polyacrylamide gel electrophoresis (PAGE), and the polypeptides were transferred to nitrocellulose membranes (Bio-Rad Laboratories, Hercules, Calif.) as described previously (18). Antigen-antibody reactions were detected with the enhanced chemiluminescent assay (Amersham Pharmacia Biotech) following the manufacturer's recommendations. […]
FIGS. 9 and 10. The concentration effect of E64d on p21^cip1 abundance in HCMV-infected cells. 9: LU cells were density arrested as described in Materials and Methods. The cells were HCMV (5 PFU/cell) or mock infected, and at 48 hr PI were treated with selected concentrations of E64d. Whole cell lysates were prepared 6 hr later, and 40 μg of protein from each lysate was resolved by SDS-PAGE. The proteins were transferred to nitrocellulose and probed with antibodies to p21^cip1. Mock: mock-infected cells in the absence of drug. Control, untreated HCMV-infected cells. 0, DMSO solvent control, consisting of HCMV-infected cells treated with the same concentration of DMSO solvent (0.1%) contained in the highest concentration of E64d. 10: Represents the abundance of p21^cip1 determined by densitometric analysis of the data in FIG. 9.
FIGS. 11 and 12. The concentration effect of Z-Leu-Leu-H on p21^cip1 abundance in HCMV-infected cells. 11. LU cells were density arrested as described in Materials and Methods. The cells were HCMV (5 PFU/cell) infected, and at 48 hr PI were treated with selected concentrations of Z-Leu-Leu-H. Whole cell lysates were prepared 6 hr later, and 40 μg of protein from each lysate was resolved by SDS-PAGE. The proteins were transferred to nitrocellulose and probed with antibodies to p21^cip1. Mock, Control, and 0 are defined as in the legend to FIG. 9. 12 : Represents the abundance of p21^cip1 determined by densitometric analysis of the data in FIG. 11.
FIGS. 13 and 14. The time course for the effect of E64d on p21^cip1 abundance in HCMV-infected, density-arrested cells. 13: LU cells were density arrested, as described in Materials and Methods. The cells were HCMV (5 PFU/cell) or mock infected, and at the intervals indicated in the Fig., beginning 1 hr after infection, subsets of the cells were treated with E64d (100 μM). […]

## CC(C)C[C@H](NC(=O)[C@H]1O[C@@H]1C(=O)O)C(=O)NCCCCN=C(N)N (relative stereo) [E64d, trans-epoxysuccinyl-L-leucylamido (4-guanidino)-butane]
100 μM, HCMV-infected cells treated at 48 hr PI, lysates 6 hr later
  p21^cip1 abundance as % of that measured in mock-infected cells: about 85%
E64d 100 μM from 48 hr PI, HCMV-infected cells, after 12 hr of treatment
  increase in the abundance of p21^cip1: 4 fold
E64d 100 μM from 48 hr PI, HCMV-infected cells, up to 24 hr treatment
  maximum level of p21^cip1 relative to that observed at 0 hr: about 84%
E64d 100 μM up to 12 hr before harvest, HCMV-infected cells, 3 hr to 96 hr PI
  p21^cip1 levels versus absence of inhibitor over time course of infection (in words): consistently greater
HCMV-infected cells treated at 48 hr PI for 6 hr, selected concentrations up to 100 μM
  protection of p21^cip1, concentration effect (in words): directly dependent on the concentration
